Source: US8409560B2, “Solid dispersion formulations and methods of use thereof” (Zalicus Pharmaceuticals Ltd., priority 2011, dated 2013)
In brackets after ≈: the same amount, converted by molar mass. Like-named read-outs stand apart in the source and are kept apart here.

Tests used:
[1] = Solubility of compound 1 (previously determined); type: physicochemical
Description: (§1) Compound 1 has the following previously determined characteristics: […]

[2] = log P of compound 1 (previously determined); type: physicochemical
Description: as §1

[3] = Hygroscopicity of compound 1 free base (previously determined); type: physicochemical; details: at 70% relative humidity (RH)
Description: Compound 1 has the following previously determined characteristics:
(vii) hygroscopicity (for free base): 0.09% at 70% relative humidity (RH);

[4] = Caco-2 apparent intestinal permeability; type: in vitro ADME; details: for recovery at 60 min, 1 μM: read-out: Percent Recovery
Description: (§2) Absorption of particular drugs may be limited by biological factors, such as reduced cellular permeability in the intestine. Many cellular mechanisms can influence permeability, such as reduced passive paracellular and transcellular transport or increased active export by the efflux transporter protein P-glycoprotein. Thus, the use of self-emulsifying carriers may not be beneficial for drugs having limited cellular permeability, where methods to increase the solubilization of a drug may not increase its permeability in the gastrointestinal tract. Experiments were conducted to assess the apparent intestinal permeability of compound 1 using a Caco-2 cell model.
(§3) Briefly, Caco-2 cells were used as an in vitro model for predicting absorption through the intestinal epithelium. Confluent monolayers of Caco-2 cells were grown on collagen-coated, microporous, polycarbonate membranes (12-well Costar Transwell® plates) that are placed between two chambers. The apical side of the monolayer was exposed to the buffer solution in a first chamber, but the basolateral side of the monolayer adhered to microporous membranes fluidically connected to a second chamber. The dosing solution was added to the first chamber for measurements in the apical-to-basolateral direction (A-to-B) and to the second chamber for measurements in the basolateral-to-apical direction (B-to-A). […] The permeability assay buffer was Hanks Balanced Salt Solution containing 10 mM HEPES and 15 mM glucose at a pH of 7.4. The buffer in the receiver chamber also contained 1% bovine serum albumin. The dosing solution concentration was 1 μM of compound 1 in the assay buffer. All donor chambers were first pre-incubated for five minutes with dosing solution to attempt to saturate any non-specific binding sites on the device with test compound. After five minutes, the solution was removed and replaced with fresh dosing solution, and time was recorded as 0. Cell monolayers were dosed on the apical side/first chamber (for A-to-B measurements) or basolateral side/second chamber (for B-to-A measurements) and incubated at 37° C. with 5% CO2 in a humidified incubator. At 30 and 60 minutes, aliquots were taken from the receiver chambers and replaced with fresh assay buffer. Samples were taken from the donor chamber at 0 and 60 minutes. Each experiment was performed in triplicate.
(§4) The apparent permeability (Papp), percent recovery, and efflux ratio were calculated as follows:
(§5) [formula] [formula] where
(§6) [formula] is the slope of the cumulative concentration in the receiver chamber as a function of time; Vr [cm^3] is the volume of the receiver chamber; Vd [cm^3] is the volume of the donor chamber; A [cm^2] is the area of the cell monolayer, which is estimated to be about 1.13 cm^2 for the 12-well Costar Transwell® plates; C0 [μM] is the measured concentration in the donor chamber at t=0 hours; CN [μM] is the nominal concentration of the dosing solution; Cr final [μM] is the cumulative concentration in the receiver chamber at the end of the incubation period; and Cd final [μM] is the cumulative concentration in the donor chamber at the end of the incubation period.
(§7) Thus, absorption of compound 1 in humans is not expected to be permeability limited.

[5] = test system: Caco-2 cells; assay: Caco-2 apparent intestinal permeability; type: in vitro ADME; details: for Papp, replicates R1-R3: 1 μM
Description: as §2, §3, §4, §5, §6, §7

[6] = Modulated differential scanning calorimetry (MDSC), glass transition temperature Tg; type: physicochemical; details: compound 1 alone
Procedure: FIG. 6 is a graph showing modulated differential scanning calorimetry measurements at ambient relative humidity for solid dispersion formulations having 20% (w/w) loading of compound 1. Glass transition temperature Tg is shown for formulations of carboxymethylethyl cellulose (CMEC), hydroxypropylmethyl cellulose acetate succinate M grade (HPMCAS-M), cellulose acetate phthalate (CAP), and polyvinyl acetate phthalate (PVAP).
Various solid dispersion formulations were tested using modulated differential scanning calorimetry (MDSC). MDSC measurements provide glass transition temperature Tg values, which can be used to understand the molecular mobility of a drug within the dispersion. […] Data for Eudragit® L 100 are not shown, but Tg is likely greater than 150° C. due to polymer degradation above this temperature. All recorded Tg values were at least twice as high as compound 1 alone (Tg=41.6° C.). Lower Tg values could indicate potential stability issues over long periods of time or at an increased temperature or pressure. Table 3 provides Tg values for CAP (formulation 1), HPMCAS-M (formulation 2), and PVAP.

O=C(CC(c1ccccc1)c1ccccc1)N1CCN(C(c2ccccc2)c2ccccc2)CC1 [Compound 1, 1-(4-benzhydrylpiperazin-1-yl)-3,3-diphenylpropan-1-one]
solubility in propylene glycol, ethanol, and tetrahydrofuran (in words) [1]: soluble
solubility ([1]; acetone, organic solvent or mixture, read-out: solubility in acetone): ≤ 50000 µg/mL
solubility ([1]; pH 6.5, pH of 6.5 in FaSSIF, read-out: solubility): 1.5 µg/mL (≈ 3.26 µM)
solubility in water (in words) ([1]; water): slightly soluble
solubility ([1]; water, pH 1, simulated gastric fluid, pH of 1.0, read-out: solubility in water): 55 µg/mL (≈ 119 µM)
solubility ([1]; water, pH 6.5, aqueous buffer, pH of 6.5, read-out: solubility in water): 0.03 µg/mL (≈ 0.0651 µM)
solubility ([1]; water, pH 6.8, aqueous buffer, pH of 6.8, read-out: solubility in water): 0.2 to 2 µg/mL (≈ 0.434 to 4.34 µM)
logP [2]: 2.6
hygroscopicity [3]: 0.09%
recovery at 60 min, 1 μM ([4]; Caco-2, pH 7.4, Cell-free): 54%
Papp A→B at 60 min, 1 μM ([4]; human, Caco-2, pH 7.4, A-to-B, read-out: Papp Avg.): 5.15 ×10⁻⁶ cm/s
Papp A→B at 60 min, 1 μM ([4]; human, Caco-2, pH 7.4, A-to-B, read-out: Papp, replicates R1-R3): 4.37 ×10⁻⁶ cm/s
recovery at 60 min, 1 μM ([4]; human, Caco-2, pH 7.4, A-to-B): 28%
Papp B→A at 60 min, 1 μM ([4]; human, Caco-2, pH 7.4, B-to-A, read-out: Papp Avg.): 4.32 ×10⁻⁶ cm/s
Papp B→A at 60 min, 1 μM ([4]; human, Caco-2, pH 7.4, B-to-A, read-out: Papp, replicates R1-R3): 5.04 ×10⁻⁶ cm/s
recovery at 60 min, 1 μM ([4]; human, Caco-2, pH 7.4, B-to-A): 37%
efflux ratio at 60 min, 1 μM ([4]; human, Caco-2, pH 7.4, read-out: Efflux Ratio (Papp(B-to-A)/Papp(A-to-B))): 0.8
Papp, replicates R1-R3 ([5]; A-to-B): 4.31 10^−6 cm/s
Papp, replicates R1-R3 ([5]; B-to-A): 3.48 10^−6 cm/s
permeability classification ([5]; Papp(A-to-B) more than 1.0×10^−6 cm/s): high permeability coefficient
efflux significance ([5]; efflux ratio of less than 3): not considered significant
Tg [6]: 41.6 °C
